Source: ChEMBL document CHEMBL3763057 (J Med Chem, 2016)
The source made the active and inactive calls. The rule behind the calls is not given here.

What was measured:
[1] = test system: T67; assay: Neuroprotective effect in human T67 cells assessed as inhibition of TBH-induced ROS formation at 10 uM after 30 mins by DCFH-DA fluorescent probe-based spectrofluorimetric analysis; type: functional, cell-based
[2] = Cytotoxicity against human T67 cells up to 20 uM after 24 hrs by MTT assay; type: cell-based; details: t67, 24 h
[3] = Permeability of the compound by PAMPA-BBB assay; type: ADME; details: read-out: permeability
[4] = target: Glycogen synthase kinase-3 beta (Homo sapiens, UniProt P49841); assay: Inhibition of human recombinant GSK3-beta using prephosphorylated polypeptide as substrate incubated for 30 mins by Glo-type luminescence assay
Glycogen synthase kinase-3 beta, sequence (P49841 whole entry): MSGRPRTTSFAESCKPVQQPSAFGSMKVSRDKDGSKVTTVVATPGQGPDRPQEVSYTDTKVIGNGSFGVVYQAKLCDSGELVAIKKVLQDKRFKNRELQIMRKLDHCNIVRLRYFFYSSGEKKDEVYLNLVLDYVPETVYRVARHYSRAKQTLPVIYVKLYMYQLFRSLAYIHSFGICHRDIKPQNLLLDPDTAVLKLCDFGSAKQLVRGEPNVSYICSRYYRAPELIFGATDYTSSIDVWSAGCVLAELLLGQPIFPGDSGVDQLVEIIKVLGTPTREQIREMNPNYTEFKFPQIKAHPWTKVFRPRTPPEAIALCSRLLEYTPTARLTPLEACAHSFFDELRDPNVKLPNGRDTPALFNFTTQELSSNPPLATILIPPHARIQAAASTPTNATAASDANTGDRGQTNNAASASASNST

[5] = target: Beta-secretase 1 (Homo sapiens, UniProt P56817); assay: Inhibition of human recombinant BACE1 using M-2420 as substrate preincubated for 1 hr followed by substrate addition incubated for 15 mins by FRET assay
Beta-secretase 1, sequence (P56817 whole entry): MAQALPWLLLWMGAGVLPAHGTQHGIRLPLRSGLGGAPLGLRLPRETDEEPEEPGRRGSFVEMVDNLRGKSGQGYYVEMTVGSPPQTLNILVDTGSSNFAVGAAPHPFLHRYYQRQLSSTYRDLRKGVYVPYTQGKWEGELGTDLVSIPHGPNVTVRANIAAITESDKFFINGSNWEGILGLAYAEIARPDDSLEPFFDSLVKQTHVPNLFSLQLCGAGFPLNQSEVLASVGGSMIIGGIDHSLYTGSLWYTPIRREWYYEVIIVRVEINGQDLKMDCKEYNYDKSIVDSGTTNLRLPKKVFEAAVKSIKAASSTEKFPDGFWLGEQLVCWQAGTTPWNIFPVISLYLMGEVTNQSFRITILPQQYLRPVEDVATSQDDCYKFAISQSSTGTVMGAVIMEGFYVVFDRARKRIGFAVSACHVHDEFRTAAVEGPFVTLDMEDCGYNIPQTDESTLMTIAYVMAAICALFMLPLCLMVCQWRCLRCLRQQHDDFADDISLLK

[6] = test system: T67; assay: Neuroprotective effect in human T67 cells assessed as increase in NQO1 activity using DCIP as substrate; type: functional, cell-based
[7] = Chemical stability of the compound in phosphate and borate buffer at pH 7.4 and 9.2 incubated for 3 days by RP-HPLC analysis; type: physicochemical; details: pH 7.4, 72 h
[8] = Cytotoxicity against human T67 cells at 10 uM after 24 hrs by MTT assay; type: cell-based; details: t67, 24 h
[9] = Cytotoxicity against human T67 cells at 20 uM after 24 hrs by MTT assay; type: cell-based; details: t67, 24 h
[10] = Chemical stability of the compound in phosphate and borate buffer assessed as formation of degradation product at pH 7.4 and 9.2 incubated for 3 days by RP-HPLC analysis; type: physicochemical; details: pH 7.4, 72 h

With `COc1cc(/C=C/C(O)=C/C(=O)/C=C/c2ccc(C)cc2)ccc1O` the Activity [1] was “inactive”, the Activity [2] was “Non-toxic” and the Papp [3] was 82 nm/s. The IC50 [4] was 2.09 µM, the IC50 [5] was 0.14 µM and the Activity [6] was “Active”.
In the case of `O=C(/C=C(O)/C=C/c1ccc(OCc2cccc(F)c2)cc1)/C=C/c1ccc(OCc2cccc(F)c2)cc1`, the IC50 [4] is reported as 17 µM and the IC50 [5] is reported as 1.08 µM.
With `COc1cc(/C=C/C(=O)CC(=O)/C=C/c2ccc(O)c(OC)c2)ccc1O` [CURCUMIN] the Activity [2] was “Non-toxic”, the Papp [3] was 25 nm/s and the IC50 [4] was 17.9 µM. For the same molecule, the Activity [6] was “Active”.
With `COc1ccc(/C=C/C(=O)/C=C(O)/C=C/c2ccc(OC)cc2)cc1` the Activity [1] was “inactive”, the Stability [7] was “Stable” and the Papp [3] was 28 nm/s. For the same molecule, the Activity [8] was “Non-toxic”, the IC50 [4] was 0.53 µM and the IC50 [5] was 1.65 µM. The Activity [6] was “Active”.
`O=C(/C=C/c1ccc(OCc2ccc(F)cc2F)cc1)CC(=O)/C=C/c1ccc(OCc2ccc(F)cc2F)cc1` showed an IC50 [4] of 9.06 µM and an IC50 [5] of 1 µM.
For `O=C(/C=C(O)/C=C/c1ccc(OCc2ccccc2)cc1)/C=C/c1ccc(OCc2ccccc2)cc1`, the Activity [1] was “Active”, the Activity [2] was “Non-toxic” and the Papp [3] was 36 nm/s. For the same molecule, the IC50 [4] was 2.49 µM, the IC50 [5] was 0.04 µM and the Activity [6] was “Active”.
`O=C(/C=C/c1ccc(OCc2ccccc2)cc1)CC(=O)/C=C/c1ccc(OCc2ccccc2)cc1` showed an IC50 [4] of 5.56 µM and an IC50 [5] of 6.04 µM.
With `O=C(/C=C(O)/C=C/c1ccc(OCc2ccccc2)cc1)/C=C/c1ccc(O)cc1` the Activity [1] was “inactive”, the Activity [2] was “Toxic” and the IC50 [4] was 2.01 µM. The IC50 [5] was 2.69 µM and the Activity [6] was “Active”.
In the case of `O=C(/C=C(O)/C=C/c1ccc(O)cc1)/C=C/c1ccc(O)cc1`, the Activity [1] is reported as “inactive”, the Activity [9] is reported as “Toxic” and the Papp [3] is reported as 78 nm/s. For the same molecule, the Activity [8] was “Non-toxic”, the IC50 [4] was 8.39 µM and the Activity [6] was “Active”.
In the case of `O=C(/C=C/c1ccc(OCc2cc(F)cc(F)c2)cc1)CC(=O)/C=C/c1ccc(OCc2cc(F)cc(F)c2)cc1`, the IC50 [4] is reported as 9.66 µM and the IC50 [5] is reported as 0.73 µM.
With `O=C(/C=C(O)/C=C/c1ccc(OCc2cc(F)cc(F)c2)cc1)/C=C/c1ccc(OCc2cc(F)cc(F)c2)cc1` the IC50 [4] was 8.3 µM and the IC50 [5] was 0.39 µM.
In the case of `COc1cc(/C=C/C(O)=C/C(=O)/C=C/c2ccc(OCc3ccccc3)cc2)ccc1O`, the Activity [1] is reported as “Active”, the Activity [2] is reported as “Non-toxic” and the Papp [3] is reported as 77 nm/s. The IC50 [4] was 0.9 µM, the IC50 [5] was 0.97 µM and the Activity [6] was “Active”.
With `O=C(/C=C(O)/C=C/c1ccc(OCc2ccc(F)cc2)cc1)/C=C/c1ccc(OCc2ccc(F)cc2)cc1` the IC50 [4] was 12.8 µM and the IC50 [5] was 1.04 µM.
For `COc1ccc(/C=C/C(=O)/C=C(O)/C=C/c2ccc(OCc3ccccc3)cc2)cc1`, the Activity [1] was “inactive”, the Activity [2] was “Non-toxic” and the Papp [3] was 70 nm/s. The Activity [8] was “Non-toxic”, the IC50 [4] was 2.78 µM and the IC50 [5] was 2.28 µM. The Activity [6] was “Active”.
In the case of `COc1ccc(/C=C/C(=O)CC(=O)/C=C/c2ccc(OC)cc2)cc1`, the Stability [10] is reported as “Unstable”, the IC50 [4] is reported as 15.3 µM and the IC50 [5] is reported as greater than 5 µM.
`O=C(/C=C(O)/C=C/c1ccc(OCc2ccc(F)cc2F)cc1)/C=C/c1ccc(OCc2ccc(F)cc2F)cc1` showed an IC50 [4] of 9.63 µM and an IC50 [5] of 0.4 µM.
